Data from patent US20210161189A1, “MONOESTER SUGAR DERIVATIVES AS FLAVOR MODIFIERS” (Firmenich SA, priority 2018, published 2021).

System: sensory panel
Assay: Taste modifier properties in model systems (sensory panel of 15 persons, with/without noseclip)
Format: in vivo, human
Conditions: 100 ppm
Method: The sensory properties of various compositions comprising a monoester derivative of glucose were tested in various model systems, outlined in Table 14 below. [table] FIGS. 12 to 18 report the sweetness modifier properties of each of the following compounds (tested at 100 ppm in the various mode systems described above): glucose-6-O-octanoate, glucose-6-O-acetate, glucose-6-O-hexanoate, glucose-6-O-decanoate, glucose-6-O-hexadecanoate, glucose-6-O-oleate and glucose-6-O-oleyl derivative. The sensory properties were evaluated by a sensory panel consisting of15 persons, where the properties were evaluated with the subjects wearing a noseclip (With NC), and without a noseclip (Without NC). The subjects evaluate the perceived intensities of different sensory attributes on a linear scale (“0” note intense to “10” very intense) for the corresponding model mixtures without and with the compound at 100ppm. The differences of perceived intensities between the model mixtures with and without the compound are represented for each attribute. A statistical data treatment (unilateral paired student test) is achieved on each attribute to conclude on a significant or not significant taste modulation effect of the compound.

[1] = SG95-sour model system, with and without nose clip, significance 95%
[2] = SG95, with nose clip, significance 95%

## CC(=O)OC[C@@H](O)[C@@H](O)[C@H](O)[C@@H](O)C=O [glucose-6-O-acetate]
SG95
  Licorice taste modulation effect: slight masking effects
  Sweet lingering modulation effect: slight masking effects
Model system not stated
  Bitterness modulation effect: slight bitterness masking effet
Sucrose model mixture
  Sweet taste modulation effect: slights enhancing sweetness effects
Tasted model systems
  Taste modulation effects overall: no significant modulation effects

## CCCCCCCCCCCCCCCC(=O)OC[C@@H](O)[C@@H](O)[C@H](O)[C@@H](O)C=O [glucose-6-O-hexadecanoate]
SG95/sour model system, without nose clip, significance 95%
  Sweet taste modulation effect: significant sweet masking effect
Grapefruit beverage, significance 95%
  Round/thick/mouth coating modulation effect: significant round/thick/mouth coating enhancing effect
With nose clip, significance 95%
  Bitter taste modulation effect: significant bitter enhancing effect

## CCCCCC(=O)OC[C@@H](O)[C@@H](O)[C@H](O)[C@@H](O)C=O [glucose-6-O-hexanoate]
[1]
  Licorice taste modulation effect: significant licorice taste masking effect
  Sour taste modulation effect: significant sour enhancing effect
[2]
  Sweet lingering modulation effect: significant sweet and sweet lingering masking effects
  Sweet taste modulation effect: significant sweet and sweet lingering masking effects
Sweet and sour model system, with and without nose clip, significance 95%
  Sweet taste modulation effect: significant sweet enhancing effect

## CCCCCCCCCC(=O)OC[C@@H](O)[C@@H](O)[C@H](O)[C@@H](O)C=O [glucose-6-O-decanoate]
SG95-sour model system, without nose clip, significance 95%
  Licorice taste modulation effect: significant licorice taste masking effect
All the other model systems
  Taste modulation effects: no significant effects

## CCCCCCCC/C=C\CCCCCCCC(=O)OC[C@@H](O)[C@@H](O)[C@H](O)[C@@H](O)C=O [glucose-6-O-oleate]
[1]
  Licorice taste modulation effect: significant licorice taste masking effect
SG95 model system, with and without nose clip, at least 95%
  Licorice taste modulation effect: significant licorice taste masking effect
Without nose clip, significance 95%
  Bitter taste modulation effect: significant bitter enhancing effect
Without nose clip, significance 95%, model system not stated
  Sweet lingering modulation effect: significant sweet lingering masking effect

## glucose-6-O-oleyl derivative
[2]
  Sweet lingering modulation effect: significant sweet lingering masking effect
Beverage grapefruit, significance 95%
  Flavor intensity modulation effect: significant flavor intensity masking effect
